These results are taken from patent publication US7214767B2, “VHL peptide” (Hiroshi Kanno, priority 2005, dated 2007).

One data set deals with neural stem cells. The experiment in a line: Cytotoxicity of the method of introduction into cells. The format is cell-based. An excerpt: It became clear from this that VHL (157–171) has an activity of inducing neuronal differentiation.
In data set [1] the test system is Parkinson's disease model rat. The experiment in a line: Pathological and histological study of the brain after grafting. The note with it: peptide-introduced neural stem cells grafted to striatum. The format is in vivo. On the procedure:
(§1) Next, it was studied whether the symptom could be improved by grafting of neural stem cells into which VHL (157–171) oligopeptide was introduced within the central nervous system of a nerve disease animal. Parkinson's model rat as a nerve disease animal was prepared by injection of microdose of 6-hydroxydopamine into brain of rat and depletion of unilateral dopamine producing cells. Two weeks later, apomorphine induced rotation was studied and rat rotating not less than 7 times per one minute was determined as Parkinson's disease model. 10^5 neural stem cells into which VHL (157–171) oligopeptide was introduced were grafted to striatum of cerebrum of rat. After grafting, apomorphine induced rotation was determined every week. […] As behavior analysis, paw reaching test (a test wherein an ability to eat pellets placed on stairs by extending one side injured leg is studied.) was conducted and […] (FIG. 6).

Data set [2] has as its system neural stem cells derived from the adult rat hippocampus. Description: VHL oligopeptide introduced in vitro into neural stem cells using BioPORTER Reagent. The format is cell-based. To be noted: for morphological change compared with control group: 8 hours after introduction. On the procedure: The oligopeptide prepared according to the above-described method was introduced in vitro into neural stem cells derived from the adult rat hippocampus at a concentration of 10–1000 ng/ml using BioPORTER Reagent (BioPORTER protein delivery reagent: Gene Therapy Systems, Inc., San Diego, Calif., U.S.A.). […] When this was immunofluorescence stained at a concentration of 100 ng/mL 24 hours after introduction, it was confirmed that 72% of them was differentiated into neurons, and 12% was differentiated into neuroglia cells (FIG. 4). Thereby, it was clarified that VHL could induce neuronal differentiation even by the method of peptide introduction not by introduction of gene.

The subject of data set [3] is Parkinson's model rat. Description: Apomorphine induced rotation after grafting of VHL peptide-introduced neural stem cells. The format is in vivo. The note with it: after two months; 10^5 peptide-introduced neural stem cells grafted to striatum. How it is done:
as §1

Data set [4] concerns Parkinson's model rat. Description: Paw reaching test after grafting of VHL peptide-introduced neural stem cells. The format is in vivo. The note with it: peptide-introduced neural stem cells grafted to striatum. On the procedure:
as §1

The subject of a further data set is skin stem cells. Description: Induction of differentiation of skin stem cells by VHL protein (FIG. 1). The note with it: neurofilament positive neuron. The format is cell-based. An excerpt: FIG. 1 is a fluorescence photomicrograph showing induction of differentiation of skin stem cell into neurofilament positive neuron.
A VHL gene, which is the causative gene of von Hippel-Lindau disease, a hereditary disease causing brain tumor (hemangioblastoma) or renal cancer, is a kind of a tumor suppressor gene. This gene was isolated from human chromosome 3 by Dr. Zbar et al.'s group (U.S.A.) in 1993. It has been reported that the VHL gene and the protein are expressed in neurons. However, the function of this gene in the nervous system was unknown. We considered that the gene may be involved in the formation of the nervous system at fetal developmental stages and studied differentiation over time of neural stem cells isolated from a rat fetal brain. […] As a result, when VHL gene is introduced to express VHL protein, neural stem cells are differentiated into neurons. Thus, it was clarified that VHL protein has a function to induce differentiation of nerves.

The mark [5] stands for this setting: 100 ng/mL, 24 hours after introduction, BioPORTER Reagent.

Turning to “Ac-TLKERCLQVVRSLVKKKWKMRRNQFWVKVQRGK-NH2 [VHL (157–171)-ANT]”, in the data set on neural stem cells, the cytotoxicity entry is listed as “does not show cytotoxicity”.
Turning to “TLKERCLQVVRSLVK [VHL (157–171) oligopeptide]”, in data set [1], the “grafted cells taken within the brain” value is given as “about 70%” and the “type of the grafted cells taken within the brain” value is “most of them were neurofilament positive neurons”. Besides, the “type of the grafted cells taken within the brain” value in data set [1] (listed as VHL gene) was “most of them are neuronal filaments”. Moreover, in data set [2] (setting [5]), the “cells differentiated into neuroglia cells (immunofluorescence staining)” value is 12% and the “cells differentiated into neurons (immunofluorescence staining)” value came to 72%. Further, the “morphological change compared with control group” value in data set [2] (BioPORTER Reagent) is listed as “more marked as compared with the control group”. The “morphological change compared with control group” value in data set [2] (BioPORTER Reagent, listed as VHL peptide) is on record as “marked as compared with control group”. Moreover, the “concentration at which neural stem cells showed inclination to differentiate to neuron morphologically, elongation of neural spine observed” value in data set [2] (after 4 hours, introduced at 10–1000 ng/ml using BioPORTER Reagent) is listed as “not less than 10 ng/ml”. Also, in the data set on Parkinson's model rat [3], the “rats showing zero of apomorphine induced rotation” value is “about 30%”. In the data set with Parkinson's model rat [4], the “behavior analysis (paw reaching test, apomorphine induced rotation) compared with control group” value was “significant improvement”.
Consider “VHL protein: von Hippel-Lindau protein consisting of 213 full length amino acids”, for which the “differentiation of skin stem cells into neurons” value with skin stem cells was “induces differentiation of skin stem cells into neurons”.
